Where a SMILES comes first, the peptide text is derived from it.
Experiments:
C. albicans [1] = assay: Fluorescence light and confocal microscopy, internalization of FITC-labeled peptide; assay type: cell-based, Candida albicans
Protocol: (§1) The internalization of MUC7 20-mer into fungi was visualized in C. albicans and C. neoformans. Untreated cells (10^7) or cells preincubated with 20 mM sodium azide, 300 μM CCCP, 50 mM Ca^++ or 50 mM Mg^++ were then treated with 50 μM FITC-MUC7 20-mer for 45-90 minutes in 100 μl of Na phosphate buffer (10 mM, pH 7.4) at 37° C. Untreated cells were also incubated with 50 μM FITC-MUC7 20-mer at 4° C. The cells were then extensively washed with phosphate buffer, concentrated and resuspended in the same buffer. The cell suspension was then quickly mounted on slides with sealed cover-slips. Fluorescence light micrographs were made on a Nikon Optiphot microscope, with a fluorescent light source.
(§2) The intracellular localization of FITC-MUC7-20mer was investigated in a double-labeling experiment using MitoTracker Red mitochondrial probe. C. albicans and C. neoformans were incubated with 500 nM MitoTracker Red in 10 mM Na phosphate buffer, pH 7.4 for 15 minutes at room temperature, washed three times with the same buffer, and subsequently incubated with 50 μM FITC-MUC7 20-mer. After 20 min. incubation at 37° C., the suspension was washed with phosphate buffer extensively. The cell suspension was then quickly mounted on slides with sealed cover-slips. Confocal fluorescence microscopy was performed with a BioRad MRC-1024 confocal microscope system with Krypton-argon laser which outputs 488, 568 and 647 nm excitation line and Nikon upright epifluorescence microscope (Zeiss 60× oil immersion planApp objective with 1.4 numerical aperture).
(§3) The internalization of MUC7 20-mer and 12-mer-3 into fungi was visualized using FITC labeled peptides. Cells (10^7) were treated with 50 μM FITC-MUC7 20-mer or 12-mer-3 for 45-90 mins in 100 μl of Na phosphate buffer (10 mM, pH 7.4) at 37° C. The cells were then processed and visualized as described in Example 1.

A. actinomycetemcomitans = assay: Fluorescence microscopy, internalization of FITC-labeled peptide in bacteria; assay type: cell-based, Actinobacillus actinomycetemcomitans; settings: data not shown
From the text: In order to visualize the association of 20-mer with fungi or bacteria and its fungal cellular localization, N-terminal FITC-labeled MUC7 20-mer was used. […] In addition, confocal fluorescence microscopy was used to study the intracellular target of the peptides.

C. albicans [2] = assay: Fungal transmembrane potential, DiSC3(5) dye release; assay type: cell-based, Candida albicans; settings: peptide 18 μM, 1500 second
Protocol: (§4) Peptide-induced permeabilization of C. albicans and C. neoformas cell membranes was monitored by measuring changes in transmembrane potential. Measurements were carried out using the transmembrane potential sensitive dye 3,3′-dipropyl-2,2′-thiadicarbocyanine iodide (DiSC3(5)). Fungi were grown overnight on SAB plates and resuspended in 10 mM Na phosphate buffer pH 7.4 at a concentration of 1×10^5 cells/ml. Dye was diluted in ethanol to achieve a final concentration of 714 nM. […] The use of this dye in fungal cells to monitor changes in permeabilization is reliable and well documented. This cationic dye accumulates on membranes, is translocated into the lipid bilayer and aggregates within the confined membrane interior. Once aggregated inside the cell, the molecules interact with each other, losing energy, and decreasing fluorescence through a process called quenching. If permeabilization occurs, dye is released into the medium and it regains its fluorescent properties, allowing it to be detected. Experiments were carried out using a spectrofluorimeter (Perkin Elmer LS 50 B). A water bath and circulator was connected to the machine.

C. neoformans [3] = assay: as above; assay type: cell-based, Cryptococcus neoformans; settings: peptide 18 μM, 1500 second
Protocol: as §4

C. neoformans [4] = assay: Antifungal (cidal) activity assay, loss of cell viability; assay type: cell-based, Cryptococcus neoformans; settings: for Loss of Cell viability (%): Cryptococcus neoformans, 6.25 μM, pH 7.4
From the text: (§5) Azole-sensitive (# 2-76) and azole-resistant (# 12-99) clinical isolates of C. albicans were a gift from Dr. Theodore C. White (University of Washington and Seattle Biomedical Research Institute, Seattle, Wash.). An azole-sensitive Candida glabrata (C. glabrata) was purchased from ATCC (ATCC 90030) and its azole-resistant counterpart, clinical isolate 65C, was obtained from Dr. John E. Bennett (National Institute of Allergy and Infectious Diseases, Bethesda, Md.). A clinical isolate of Candida krusei (C. krusei) was obtained from the Erie County Medical Center, Buffalo, N.Y. Amphotericin B-sensitive (CN2) and -resistant (CN2843) C. neoformans strains were obtained from AIDS patients with cryptococcal meningitis and were generously provided by Dr. John H. Rex (University of Texas Medical School, Houston, Tex.). Additionally, Saccharomyces cerevisiae (S. serevisiae) strain S288C was provided by Dr. D. Kosman, Department of Biochemistry, University at Buffalo, the State University of New York. All fungi were streaked and grown on SAB plates at 37° C., except S. cerevisiae, which was grown at 30° C. until large colonies were formed. One colony was then picked and resuspended in Na phosphate buffer (pH 7.4) and the concentration was adjusted to 1×10^5 cell/ml for the antifungal assay described below.
(§6) Two fold serial dilutions of each peptide (ranging from 100 μM down to 1.5625 μM) in 20 μl of 10 mM Na phosphate buffer, pH 7.4, were incubated with an equal volume of bacterial or fungal strain (10^5 cells/ml) for 1.5 hours at 30° C. for S. cerevisiae and 37° C. for the rest of strains tested. At the end of incubation, the samples were diluted 20 fold and aliquots (˜120 cells) of each sample were plated on appropriate plates depending on the strain tested, as indicated above. Plates were incubated for 1 to 7 days aerobically or anaerobically, depending on the strain tested. Colonies were then counted, and the loss of cell viability was plotted as a function of protein concentration. Fungicidal activities against C. albicans and C. neoformans were also tested at 4° C.
(§7) To test the effect of inhibitors of oxidative phosphorylation in the mitochondrial system on peptide-induced killing, C. albicans and C. neoformans (CN2) were preincubated with either 20 mM sodium azide or 300 μM CCCP for 2 hours at 37° C. The cidal assays were then carried out as described above. In separate control experiments, both inhibitors were evaluated for their toxicity toward C. albicans and C. neoformans (CN2) in the absence of peptides. At these concentrations, neither compound had any cidal effect. In addition, the fungicidal activities of MUC7 20-mer and Hsn-5 (25 μM) in 10 mM Na phosphate buffer (pH 7.4) in the presence of varying concentrations (1-50 mM) of Ca^++ (as CaCl2) or Mg^++ (as MgCl2) were examined.
(§8) A time course study of peptide-induced killing was statistically analyzed by student t-test.
(§9) Two fold serial dilutions of each peptide (ranging from 50 or 25 μM down to 1.5625 μM) in 20 μl of 10 mM Na phosphate buffer, pH 7.4, were incubated with an equal volume of fungal strain (10^5 cells/ml, also in Na phosphate buffer) for 1.5 hours at 37°. At the end of incubation, the samples were diluted 20 fold with the same buffer and aliquots (˜150 cells) of each sample were plated on SAB plates. Plates were incubated for 1 to 2 days for C. albicans and C. neoformans, respectively. Colonies were then counted, and the loss of cell viability was plotted as a function of protein concentration. The statistical analysis was as described in Example 1.

C. albicans [5] = assay: as above; assay type: cell-based, Candida albicans; settings: for Loss of Cell viability (%): Candida albicans, 6.25 μM, pH 7.4
From the text: as §5, §6, §7, §8, §9

C. neoformans [6] = assay: Fluorescence light and confocal microscopy, internalization of FITC-labeled peptide; assay type: cell-based, Cryptococcus neoformans
Protocol: as §1, §2, §3

[7] = 4° C., 20 mM sodium azide, 300 μM CCCP

CC[C@H](C)[C@H](NC(=O)[C@H](Cc1ccccc1)NC(=O)[C@@H]1CCCN1C(=O)[C@H](CCCCN)NC(=O)[C@H](CCC(N)=O)NC(=O)[C@H](Cc1c[nH]cn1)NC(=O)[C@H](C)NC(=O)[C@@H](N)CC(C)C)C(=O)N[C@@H](CCCNC(=N)N)C(=O)N[C@@H](CCCCN)C(=O)N[C@@H](CO)C(=O)N[C@@H](Cc1ccc(O)cc1)C(=O)N[C@@H](CCCCN)C(=O)N[C@@H](CS)C(=O)N[C@@H](CC(C)C)C(=O)N[C@@H](Cc1c[nH]cn1)C(=O)N[C@@H](CCCCN)C(=O)N[C@@H](CCCNC(=N)N)C(=O)N[C@@H](CS)C(=O)N[C@@H](CCCNC(=N)N)C(=O)O [Peptide 20-mer] (H-LAHQKPFIRKSYKCLHKRCR-OH; N-terminus and C-terminus assumed)
internalization of FITC-labeled peptide (C. albicans [1]; 50 μM, 45-90 minutes, 37° C.): internalization is observed | uptake at 4° C. or after pretreatment with sodium azide or CCCP (C. albicans [1]; [7]): did not affect uptake | internalization in bacterial cells (A. actinomycetemcomitans): seen on the cell membrane and the inside | release of DiSC3(5) dye (loss of membrane potential) (C. albicans [2]): rapid release of dye | release of DiSC3(5) dye (loss of membrane potential) (C. neoformans [3]): rapid release of dye | killing retained in the presence of Ca++ (C. neoformans [4]; 25 μM): 90% | killing retained in the presence of Mg++ (C. neoformans [4]; 25 μM): 84% | effect of pretreatment with CCCP or sodium azide on peptide-induced killing (C. neoformans [4]; C. neoformans, 300 μM CCCP or 20 mM sodium azide, 2 hours): did not protect | activity at 4° C. (C. neoformans [4]; C. neoformans, 4° C.): hardly affected | Loss of Cell viability (%) (C. neoformans [4]; 30 min): 96 + 2% | Loss of Cell viability (%) (C. neoformans [4]; 45 min): 98 + 1% | Loss of Cell viability (%) (C. neoformans [4]; 90 min): 100 + 0% | killing activity at 4° C. (C. albicans [5]): ~90% | effect of pretreatment with CCCP or sodium azide on peptide-induced killing (C. albicans [5]; C. albicans, 300 μM CCCP or 20 mM sodium azide, 2 hours): did not protect | effect of 1 mM Ca++ or Mg++ on anticandidal activity (C. albicans [5]; C. albicans, 1 mM Ca++ or Mg++, peptide 25 μM): limited effect | anticandidal activity sustained in the presence of Ca++ or Mg++ (C. albicans [5]; C. albicans, 10 mM Ca++ or Mg++, peptide 25 μM): 10% | Loss of Cell viability (%) (C. albicans [5]; 15 min): 42 + 5% | Loss of Cell viability (%) (C. albicans [5]; 30 min): 52 + 1% | Loss of Cell viability (%) (C. albicans [5]; 45 min): 64 + 3% | Loss of Cell viability (%) (C. albicans [5]; 90 min): 74 + 6% | internalization of FITC-labeled peptide (C. neoformans [6]; 50 μM, 45-90 minutes, 37° C.): internalization is observed | uptake at 4° C. or after pretreatment with sodium azide or CCCP (C. neoformans [6]; [7]): did not affect uptake
